From ChEMBL document CHEMBL1201862, “PubChem BioAssay data set” (2004)
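Protocol summary: plate cells (96-well), add compound at 5 concentrations, incubate 48 h, interpolate endpoints linearly. Abbreviation: GI50, concentration required for 50% inhibition of growth.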 Activity calls are given as the source filed them. Rule as the data show it: active = GI50 up to about 1.1 µM and inactive = higher.

Tests used:
Test in all cases: growth of human tumour cells (NCI), 48 h
RXF 393 = system: RXF 393
IGROV-1 = system: IGROV-1
MDA-N = system: MDA-N
A549 = system: A549
Malme-3M = system: Malme-3M
NCI-H226 = system: NCI-H226
SK-MEL-2 = system: SK-MEL-2
DU-145 = system: DU-145
LOX IMVI = system: LOX IMVI
ACHN = system: ACHN
NCI-H23 = system: NCI-H23
UO-31 = system: UO-31
M14 = system: M14
SK-MEL-5 = system: SK-MEL-5
PC-3 = system: PC-3
A498 = system: A498
OVCAR-4 = system: OVCAR-4
COLO 205 = system: COLO 205
SF-295 = system: SF-295
UACC-257 = system: UACC-257
CCRF-CEM = system: CCRF-CEM
HCT-15 = system: HCT-15
T47D = system: T47D
SNB-19 = system: SNB-19
SF-268 = system: SF-268
MDA-MB-231 = system: MDA-MB-231
TK-10 = system: TK-10
OVCAR-3 = system: OVCAR-3
SN12C = system: SN12C
UACC-62 = system: UACC-62
U-251 = system: U-251
SR = system: SR
MOLT-4 = system: MOLT-4
SK-OV-3 = system: SK-OV-3
SF-539 = system: SF-539
NCI/ADR-RES = system: NCI/ADR-RES
CAKI-1 = system: CAKI-1
SK-MEL-28 = system: SK-MEL-28
Hs-578T = system: Hs-578T
MDA-MB-435 = system: MDA-MB-435
NCI-H460 = system: NCI-H460
HL-60 = system: HL-60
HCT-116 = system: HCT-116
K562 = system: K562
NCI-H522 = system: NCI-H522
HT-29 = system: HT-29
OVCAR-8 = system: OVCAR-8
786-0 = system: 786-0
OVCAR-5 = system: OVCAR-5
SW-620 = system: SW-620
SNB-75 = system: SNB-75
HOP-92 = system: HOP-92
RPMI-8226 = system: RPMI-8226
HOP-62 = system: HOP-62
KM12 = system: KM12
EKVX = system: EKVX
MCF7 = system: MCF7
HCC 2998 = system: HCC 2998

Question: Which results are given for COc1cc(O)c2c(c1)OCC(Cc1ccc(O)cc1)C2=O (stereo unspecified)?
Answer: GI50 (RXF 393): 21.1 µM (inactive); GI50 (IGROV-1): > 100 µM (inactive); GI50 (MDA-N): > 100 µM (inactive); GI50 (A549): > 100 µM (inactive); GI50 (Malme-3M): > 100 µM (inactive); GI50 (NCI-H226): > 100 µM (inactive); GI50 (SK-MEL-2): > 100 µM (inactive); GI50 (DU-145): > 100 µM (inactive); GI50 (LOX IMVI): > 100 µM (inactive); GI50 (ACHN): > 100 µM (inactive); GI50 (NCI-H23): > 100 µM (inactive); GI50 (UO-31): > 100 µM (inactive); GI50 (M14): > 100 µM (inactive); GI50 (SK-MEL-5): 44.4 µM (inactive); GI50 (PC-3): > 100 µM (inactive); GI50 (A498): 36.1 µM (inactive); GI50 (OVCAR-4): 86.3 µM (inactive); GI50 (COLO 205): > 100 µM (inactive); GI50 (SF-295): 51.1 µM (inactive); GI50 (UACC-257): > 100 µM (inactive); GI50 (CCRF-CEM): > 100 µM (inactive); GI50 (HCT-15): 94.8 µM; GI50 (T47D): 45.4 µM (inactive); GI50 (SNB-19): > 100 µM (inactive); GI50 (SF-268): 80.5 µM (inactive); GI50 (MDA-MB-231): > 100 µM (inactive); GI50 (TK-10): > 100 µM (inactive); GI50 (OVCAR-3): 60.4 µM (inactive); GI50 (SN12C): > 100 µM (inactive); GI50 (UACC-62): > 100 µM (inactive); GI50 (U-251): > 100 µM (inactive); GI50 (SR): 55.8 µM (inactive); GI50 (MOLT-4): > 100 µM (inactive); GI50 (SK-OV-3): > 100 µM (inactive); GI50 (SF-539): > 100 µM (inactive); GI50 (NCI/ADR-RES): > 100 µM (inactive); GI50 (CAKI-1): 68.5 µM (inactive); GI50 (SK-MEL-28): > 100 µM (inactive); GI50 (Hs-578T): 45.7 µM (inactive); GI50 (MDA-MB-435): > 100 µM (inactive); GI50 (NCI-H460): > 100 µM (inactive); GI50 (HL-60): > 100 µM (inactive); GI50 (HCT-116): > 100 µM (inactive); GI50 (K562): > 100 µM (inactive); GI50 (NCI-H522): > 100 µM (inactive); GI50 (HT-29): > 100 µM (inactive); GI50 (OVCAR-8): > 100 µM (inactive); GI50 (786-0): > 100 µM (inactive); GI50 (OVCAR-5): > 100 µM (inactive); GI50 (SW-620): > 100 µM (inactive); GI50 (SNB-75): 74.3 µM (inactive); GI50 (HOP-92): 37.9 µM (inactive); GI50 (RPMI-8226): 65.5 µM (inactive); GI50 (HOP-62): > 100 µM (inactive); GI50 (KM12): > 100 µM (inactive)

Question: How did the GI50 (RXF 393) turn out when CC(C)CCNC(=O)c1ccc(CNC(=O)/C=C/c2ccc3ccccc3c2)cc1 was run?
Answer: > 100 µM (inactive)

Question: And the GI50 (MDA-N)?
Answer: > 100 µM (inactive)

Question: What about the GI50 (A549) of the same molecule?
Answer: > 100 µM (inactive)

Question: What about the GI50 (NCI-H226) of the same molecule?
Answer: > 100 µM (inactive)

Question: And the GI50 (SK-MEL-2)?
Answer: > 100 µM (inactive)

Question: And the GI50 (DU-145)?
Answer: > 100 µM (inactive)

Question: And the GI50 (LOX IMVI)?
Answer: > 100 µM (inactive)

Question: And the GI50 (ACHN)?
Answer: > 100 µM (inactive)

Question: And the GI50 (NCI-H23)?
Answer: > 100 µM (inactive)

Question: And the GI50 (UO-31)?
Answer: 44.1 µM (inactive)

Question: And the GI50 (M14)?
Answer: 46.3 µM (inactive)

Question: And the GI50 (SK-MEL-5)?
Answer: > 100 µM (inactive)

Question: And the GI50 (PC-3)?
Answer: > 100 µM (inactive)

Question: And the GI50 (A498)?
Answer: > 100 µM (inactive)

Question: What about the GI50 (OVCAR-4) of the same molecule?
Answer: 59.3 µM (inactive)

Question: What about the GI50 (EKVX) of the same molecule?
Answer: > 100 µM (inactive)

Question: What about the GI50 (COLO 205) of the same molecule?
Answer: > 100 µM (inactive)

Question: And the GI50 (SF-295)?
Answer: > 100 µM (inactive)

Question: And the GI50 (UACC-257)?
Answer: > 100 µM (inactive)

Question: And the GI50 (MCF7)?
Answer: > 100 µM (inactive)

Question: And the GI50 (CCRF-CEM)?
Answer: > 10 µM (inactive)

Question: What about the GI50 (HCC 2998) of the same molecule?
Answer: > 100 µM (inactive)

Question: And the GI50 (HCT-15)?
Answer: > 100 µM

Question: And the GI50 (T47D)?
Answer: > 100 µM (inactive)

Question: What about the GI50 (SNB-19) of the same molecule?
Answer: > 100 µM (inactive)

Question: And the GI50 (SF-268)?
Answer: > 100 µM (inactive)

Question: What about the GI50 (MDA-MB-231) of the same molecule?
Answer: > 100 µM (inactive)

Question: What about the GI50 (OVCAR-3) of the same molecule?
Answer: > 100 µM (inactive)

Question: What about the GI50 (SN12C) of the same molecule?
Answer: > 100 µM (inactive)

Question: What about the GI50 (UACC-62) of the same molecule?
Answer: > 100 µM (inactive)

Question: And the GI50 (U-251)?
Answer: 36 µM (inactive)

Question: And the GI50 (SR)?
Answer: > 100 µM (inactive)

Question: And the GI50 (MOLT-4)?
Answer: > 100 µM (inactive)

Question: What about the GI50 (SK-OV-3) of the same molecule?
Answer: > 100 µM (inactive)

Question: And the GI50 (NCI/ADR-RES)?
Answer: > 100 µM (inactive)

Question: What about the GI50 (CAKI-1) of the same molecule?
Answer: > 100 µM (inactive)

Question: What about the GI50 (SK-MEL-28) of the same molecule?
Answer: > 100 µM (inactive)

Question: And the GI50 (MDA-MB-435)?
Answer: > 100 µM (inactive)

Question: And the GI50 (NCI-H460)?
Answer: > 100 µM (inactive)

Question: What about the GI50 (HL-60) of the same molecule?
Answer: > 100 µM (inactive)

Question: And the GI50 (HCT-116)?
Answer: > 100 µM (inactive)

Question: What about the GI50 (K562) of the same molecule?
Answer: > 100 µM (inactive)

Question: What about the GI50 (OVCAR-8) of the same molecule?
Answer: > 100 µM (inactive)

Question: And the GI50 (786-0)?
Answer: > 100 µM (inactive)

Question: What about the GI50 (OVCAR-5) of the same molecule?
Answer: > 100 µM (inactive)

Question: And the GI50 (SW-620)?
Answer: > 100 µM (inactive)

Question: What about the GI50 (SNB-75) of the same molecule?
Answer: > 100 µM (inactive)

Question: And the GI50 (HOP-92)?
Answer: > 100 µM (inactive)

Question: And the GI50 (RPMI-8226)?
Answer: > 100 µM (inactive)

Question: And the GI50 (HOP-62)?
Answer: > 100 µM (inactive)

Question: And the GI50 (KM12)?
Answer: > 100 µM (inactive)
